Measurements taken from patent US11479536B1 (King Abdulaziz University, priority 2022, dated 2022).
≈ marks a conversion by molar mass, not a printed value.

Assays:
MCF7 spheroids [1] = assay: Live and dead assay of tumor spheroids, MCF7; assay type: cell-based, human; details: 48 h post treatment, control 10.33±2.40%
Procedure: The Live/Dead assay contains a mixture of two staining fluorescent dyes that label live and dead cells to enable differentiation between them. The cell viability of the cells in response to the treatment with MAK compounds was examined. The cells were grown for 48 hours and treated with MAK compound for additional 48 hours, then Cytox RED solution reagent was added. After incubation at 37° C. under 5% CO2 for 1 hour, the samples were immediately analyzed by flow cytometry. Mean values and standard deviation of replicates were calculated in comparison to the control group.

CYP3A4 = target: T1, CYP3A4 (Homo sapiens, UniProt P08684); assay: Inhibition assay of human CYP450 enzymes, 3A4; assay type: in vitro ADME
T1 construct: purchased Fisher Scientific; host or cells: insect supersomes
T1 sequence (P08684 whole entry): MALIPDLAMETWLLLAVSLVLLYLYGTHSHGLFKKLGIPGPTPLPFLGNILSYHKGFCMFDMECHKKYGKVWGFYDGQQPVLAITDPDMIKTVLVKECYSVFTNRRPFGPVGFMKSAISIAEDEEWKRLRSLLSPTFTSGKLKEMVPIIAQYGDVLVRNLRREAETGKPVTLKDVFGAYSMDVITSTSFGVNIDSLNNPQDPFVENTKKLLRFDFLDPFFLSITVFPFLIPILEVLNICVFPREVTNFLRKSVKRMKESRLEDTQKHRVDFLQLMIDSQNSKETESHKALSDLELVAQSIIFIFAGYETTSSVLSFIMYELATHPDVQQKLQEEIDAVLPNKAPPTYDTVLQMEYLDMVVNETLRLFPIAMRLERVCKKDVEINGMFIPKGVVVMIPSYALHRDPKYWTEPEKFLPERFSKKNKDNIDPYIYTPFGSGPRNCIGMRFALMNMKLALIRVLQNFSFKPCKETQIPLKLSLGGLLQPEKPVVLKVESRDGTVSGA
Procedure: The two compounds MAK-1 and MAK-6 were assessed for its ability to inhibit the three major human CYP450 enzymes, 3A4, 2D6 and 2C9. Assays were run in triplicate. Expressed enzymes in insect supersomes (Fisher Scientific, Waltham, Mass.) were used to minimize non-specific binding and membrane partitioning issues (McMasters et al., 2007). The 3A4 assay uses testosterone as a substrate and analysis was performed by LC/MS/MS on a Waters Xevo TQ instrument as described above using positive electrospray ionization. Assay acceptance criteria was 20% for all standards and 25% for the LLOQ. The 2D6 and 2C9 assays use fluorescent substrates (3-[2-(N,N-diethylamino)ethyl]-7-methoxy-4-methylcoumarin for 2D6; 7-methoxy-4-(trifluoromethyl)coumarin for 2C9) and were analyzed on an Envision plate reader. GraphPad® Prism v 5.04 was used for nonlinear fitting of data to generate IC50 values.

[2] = Stability in human liver microsomes; assay type: in vitro ADME
Procedure: Both mouse and human liver microsomes were obtained from Merck KGaA, (Darmstadt, Germany), Cat. No. M9441 (Mouse liver microsomes) and M0317 (Human liver microsomes). Assays were conducted in triplicate in 96-deep well polypropylene plates. The compounds were incubated with pooled liver microsomes from male CD-1 mice (Life Technologies, Grand Island, N.Y.), tetra-sodium NADPH and magnesium chloride for 60 min at 37° C. with gentle shaking. At five time points, reaction mixture aliquots were transferred to 96-shallow well stop plates on ice containing acetonitrile with 0.1 μM propafenone. […] Standard curves for test compound were generated using 5 concentrations in triplicate that were processed as above but with zero incubation time. Stop plates were centrifuged at 2000 g for 10 min and then supernatant aliquots were transferred to a Waters Aquity® UPLC 700 μL 96-well sample plate with cap mat (Waters, Milford, Mass.). The amount of compound remaining in the supernatant was quantified by LC/MS/MS using a Waters Xevo TQ MS (electrospray positive mode) coupled to a Waters Aquity® UPLC (BEH column, C18). Propafenone was used as the internal standard. GraphPad® Prism v 5.04 was used for nonlinear fitting of time course data to generate t1/2 values.

[3] = Maximum kinetic aqueous solubility; assay type: physicochemical; details: phosphate buffer with 2% DMSO, kinetic from dmso stock, 2% DMSO/PBS, pH 7.4, read-out: maximum kinetic aqueous solubility (saturation)
Procedure: Solubility assays were performed using Millipore MultiScreen® HTS-PFC Filter Plates designed for solubility assays (EMD Millipore, Billerica, Mass.). Assays were run in triplicate. The 96-well plates consist of two chambers separated by a filter. Liquid handling was performed using JANUS® Verispan and MTD workstations (Perkin Elmer, Waltham, Mass.). 4 μL of MAK-1 or MAK-6 solution (10 mM in DMSO) was added to 196 μL of phosphate buffer (45 mM potassium phosphate, 45 mM sodium acetate, 45 mM ethanolamine, pH=7.4) in the top chamber to give a final DMSO concentration of 2% and a theoretical drug concentration of 200 μM. Plates were gently shaken for 90 min and then subjected to vacuum. Insoluble drug is captured on the filter. 160 μL of the filtrate is transferred to 96-well Griener UV Star® analysis plates (Sigma-Aldrich, St. Louis, Mo.) containing 40 μL of acetonitrile. The test compound concentration in the filtrate is measured by UV absorbance on a Spectromax® Plus microplate reader (Molecular Devices, Sunnyvale, Calif.) using Softmax Pro software v.5.4.5. Absorbances at 5 wavelengths (280, 300, 320, 340, and 360 nm) were summed to generate the UV signal. Standard curves were generated by adding 4 μL of five concentrations of test compound in DMSO to 40 μL of acetonitrile in UV Star plates followed by 156 μL of the appropriate solubility medium. […]

T47D spheroids = assay: Reactive oxygen species (CellROX) assay, T47D spheroids; assay type: cell-based, human; details: 48 h treatment, CellROX Green
Procedure: The CELLROX (Invitrogen) assay was used to measure the level of reactive oxygen species (ROS) in live cells. […] The technique was used to investigate the capability of tested compounds to induce intracellular ROS. After forming the spheroids for 48 hours and treating them for additional 48 hours with MAK compound, spheroids were incubated in culture medium with 500 nM CellROX for 60 minutes at 37° C. in presence of 5% CO2, and the samples were immediately analyzed on flow cytometry using 488-nm excitation for the CellROX® Green.

MCF7 spheroids [4] = assay: Cytotoxicity assay (MTT) in spheroid culture, MCF7; assay type: cell-based, human; details: for IC50: Homo sapiens, MCF7, 3D spheroid model, 48 h, MTT; for reduction of spheroid size: MCF7 spheroids treated at IC50 for 48 h, vs control
Procedure: 1×10^4 cells of each cell line (MCF7 and T47D) were seeded into ultra-low attachment 96 well plate at 37° C. and grown for 48 hours in DMEM media to result in the formation of spheroids. Then, the cells were subjected to the different treatment conditions before performing the assays.
The cytotoxic effects of MAK compounds were assessed against MCF7 and T47D cell lines using MTT cell viability assay. The cells were treated for 48 hours with different concentrations of each MAK compound and the control cells were subjected to the vehicle (0.1% DMSO). Then, 10% of 5 mg/mL MTT was added to each well containing treated or control cells, and mixture was incubated at 37° C. for 3 hours. After that, the MTT-containing media was replaced with 100 μL DMSO and incubated for 10 minutes at room temperature before measuring the absorbance for each well at 570 nm. According to the measured absorbance, the IC50 was calculated for each compound. All the experiments were performed in biological and experimental replicates.

Row | Structure (SMILES) | dead rate (dead cells), mean±SEM (MCF7 spheroids [1]) [%] | inhibition of CYP3A4 (CYP3A4; concentrations up to 10 μM) | half-life ([2]; human, liver microsomes, in the presence of NADPH, 37° C., read-out: stability to oxidative metabolism in human liver microsomes (t1/2)) [min] | stability in human liver microsomes ([2]; lacking (in absence of) NADPH) | solubility kinetic at 90 min [3] [µM] | ROS level, treatment vs control (T47D spheroids) [%] | IC50 (MCF7 spheroids [4]) [µM] | reduction of spheroid size (MCF7 spheroids [4]) | inhibition of CYP3A4 (CYP3A4; concentration not given) | stability in human liver microsomes ([2]; in presence of NADPH, result in words)
1 | COc1cccc(C(=O)Nc2ccc(CC(=O)NCc3ccccc3)cc2)c1 [MAK-1, N-(4-(2-(benzylamino)-2-oxoethyl)phenyl)-3-methoxybenzamide] | 36.33±0.88 | no inhibition | 35 | a trend that was not repeated | 9.4 (≈ 3.52 µg/mL) | 4 | 23.81 ± 0.16 | noticeable reduction | – | –
2 | O=C(Cc1ccc(NC(=O)c2cccc(Cl)c2)cn1)NCc1ccccc1 [MAK-6, N-(6-(2-(benzylamino)-2-oxoethyl)pyridin-3-yl)-3-chlorobenzamide] | 34.27±0.49 | – | – | highly stable | 3.7 (≈ 1.41 µg/mL) | 6 | 22.9 ± 0.245 | noticeable reduction | did not display any inhibitory activity | highly stable
